In series [1] the test system is RA patients' synovial macrophages. The conditions noted are these: Fas agonist with vs without BIS, which blocked FLIP expression; cited from earlier work.
The subject of series [2] is MNC and macrophages from RA synovial fluid. Nature of the series: uptake of FITC-labeled oligonucleotides by flow cytometry. The format is cell-based, human. The conditions noted are these: 10-20 μM, 24h, 70% ETOH fixed cells. As for the experimental part: MNC and macrophages from RA synovial fluid are incubated for 24h with FITC-labeled antisense phosphorothioate oligodeoxynucleotides (10-20 μM) comprising the FLIP initiation codon (5′-[…]-3′) (SEQ ID NO: 2). A nonsense oligonucleotides is used as negative control (for example; 5′-TGGATCCGACATGTCAGA-3′) (SEQ ID NO: 3). Uptake of the FITC-labeled oligonucleotides are measured by flow cytometry on 70% ETOH fixed cells. A 80-90% transfection efficiency is expected. A general caspase inhibitor (e.g., 20 μM zVAD.fmk) is used as negative control in all apoptosis assays. As a positive control of macrophage apoptosis, the cells are treated with 50 μM of the phosphatidylinositol 3-kinase inhibitor LY294002 for 24 h.
For orientation: A flow cytometer gives signals particle by particle.

Another series relates to rheumatoid arthritis. The conditions noted are these: methotrexate treatment; level after 6 months therapy; cited from earlier work.

This is an account of results in US20050208151A1, “Treatment of rheumatoid arthritis with FLIP antagonists” (Entelos, Inc., priority 2003, published 2005).

As for `CN(C)CCCn1cc(C2=C(c3c[nH]c4ccccc34)C(=O)NC2=O)c2ccccc21` [bisinodylmaleimide I], the “increase in macrophage apoptosis” value in series [1] is ~9 fold.

On to “5′-GACTTCAGCAGACATCCTAC-3′ (DNA, all phosphorothioate, methylation of C not given here; FITC label; listed as Homo sapiens) [FITC-labeled antisense phosphorothioate oligodeoxynucleotides comprising the FLIP initiation codon]”, for which, in series [2], the “transfection efficiency (uptake of FITC-labeled oligonucleotides)” value is given as 80-90%.

As for `CN(Cc1cnc2nc(N)nc(N)c2n1)c1ccc(C(=O)N[C@@H](CCC(=O)O)C(=O)O)cc1` [Methotrexate, methotrexate], in the series on rheumatoid arthritis, the “decrease in rate of cartilage degradation” value is recorded as “approximately 17%” and the “decrease in synovial cell density” value is on record as “approximately 33%”.
